This assay deals with T1, turtle liver aldolase (ALDOA/ALDOB, suggested heterotetramer).
T1 construct: native, purified from liver of normoxic adult females (DEAE+, two Cibacron Blue steps); ~37 kDa subunit
Put plainly: coupled NADH assay (alpha-glycerophosphate dehydrogenase / triose phosphate isomerase), […] nm. The following applies: enzyme from normoxic liver; 100 mM KPi pH 7.2, 10 mM EDTA, 25 °C; A/B isoenzyme mixture or heterotetramer. The class given is biochemical, Trachemys scripta elegans.

From paper PMC3715522, “Characterization of Fructose-1,6-Bisphosphate Aldolase during Anoxia in the Tolerant Turtle, Trachemys scripta elegans: An Assessment of Enzyme Activity, Expression and Structure” (PLoS ONE, 2013) come the findings set out here.

One may read the Km as the substrate concentration at which the rate is half of its maximum. Turning to `O=P(O)(O)OCC1(O)O[C@H](CO)[C@@H](O)[C@@H]1O` (some centres unmarked) [F1P, fructose-1-phosphate], the Km was around 14 mM.
Take `O=P(O)(O)OC[C@H]1OC(O)(COP(=O)(O)O)[C@@H](O)[C@@H]1O` (some centres unmarked) [FBP, fructose-1,6-bisphosphate]: the Km was 0.00024 ± 3e-05 mM.
